How the values were obtained:
Assay type in all cases: cell-based
[1] = target: T1, HER2 YVMA (Homo sapiens, UniProt P04626, INS775YVMA); test: BaF3 cell proliferation assay, HER2 YVMA (Table B); conditions: potency code, 3 days, CellTiterGlo, read-out: HER2 YVMA (Activity for Inhibiting HER2)
T1 construct: expressed in transfected cells; host or cells: BaF3 (murine pro-B)

[2] = target: T2, HER2 S310F (Homo sapiens, UniProt P04626, S310F); test: BaF3 cell proliferation assay, HER2 S310F (Table B); conditions: potency code, 3 days, CellTiterGlo, read-out: HER2 S310F (Activity for Inhibiting HER2)
T2 construct: expressed in transfected cells; host or cells: BaF3 (murine pro-B)

[3] = target: T3, HER2 WT (Homo sapiens, UniProt P04626); test: BaF3 cell proliferation assay, HER2 WT (Table B); conditions: potency code, 3 days, CellTiterGlo, read-out: HER2 WT (Activity for Inhibiting HER2)
T3 sequence (P04626 23-1255): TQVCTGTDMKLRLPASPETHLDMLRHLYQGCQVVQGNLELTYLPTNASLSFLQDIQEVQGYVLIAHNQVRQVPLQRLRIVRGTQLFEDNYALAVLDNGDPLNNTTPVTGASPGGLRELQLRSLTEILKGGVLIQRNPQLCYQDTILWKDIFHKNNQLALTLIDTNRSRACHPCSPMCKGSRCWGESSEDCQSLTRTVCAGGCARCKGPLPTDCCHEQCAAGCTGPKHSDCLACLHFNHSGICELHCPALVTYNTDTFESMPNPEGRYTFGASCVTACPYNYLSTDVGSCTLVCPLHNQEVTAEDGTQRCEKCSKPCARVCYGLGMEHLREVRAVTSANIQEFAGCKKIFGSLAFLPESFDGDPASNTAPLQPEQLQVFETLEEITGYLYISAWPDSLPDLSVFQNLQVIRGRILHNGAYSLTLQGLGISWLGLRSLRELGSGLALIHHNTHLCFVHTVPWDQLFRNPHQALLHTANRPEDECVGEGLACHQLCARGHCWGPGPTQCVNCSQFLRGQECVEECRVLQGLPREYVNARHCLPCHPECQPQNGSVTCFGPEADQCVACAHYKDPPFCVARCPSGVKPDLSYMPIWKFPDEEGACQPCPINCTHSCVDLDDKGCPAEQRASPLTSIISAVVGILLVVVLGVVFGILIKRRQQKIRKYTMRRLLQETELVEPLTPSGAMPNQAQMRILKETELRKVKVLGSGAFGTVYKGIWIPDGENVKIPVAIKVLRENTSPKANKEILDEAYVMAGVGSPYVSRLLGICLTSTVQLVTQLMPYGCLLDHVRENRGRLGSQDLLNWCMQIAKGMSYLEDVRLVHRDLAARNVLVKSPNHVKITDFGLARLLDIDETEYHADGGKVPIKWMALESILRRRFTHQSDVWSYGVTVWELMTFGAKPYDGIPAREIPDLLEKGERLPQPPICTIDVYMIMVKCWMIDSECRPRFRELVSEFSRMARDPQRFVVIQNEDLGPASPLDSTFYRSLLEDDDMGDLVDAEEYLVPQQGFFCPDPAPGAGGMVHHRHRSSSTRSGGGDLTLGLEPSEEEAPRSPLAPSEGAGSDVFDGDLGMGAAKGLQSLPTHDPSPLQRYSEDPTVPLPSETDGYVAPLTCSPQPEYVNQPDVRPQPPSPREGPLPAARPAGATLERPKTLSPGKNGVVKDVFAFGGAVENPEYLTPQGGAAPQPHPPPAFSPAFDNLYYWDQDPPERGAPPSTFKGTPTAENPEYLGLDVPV

[4] = target: T4, EGFR NPH (Homo sapiens, UniProt P00533, DUP771-773); test: Activity for inhibiting EGFR (Table A), EGFR NPH; conditions: read-out: EGFR NPH, potency code (IC50)
T4 construct: expressed in transfected cells; host or cells: BaF3 (murine pro-B), retroviral pMXs-IRES-Blasticidin
T4 sequence (P00533 with tags, fused parts or gaps DUP771-773): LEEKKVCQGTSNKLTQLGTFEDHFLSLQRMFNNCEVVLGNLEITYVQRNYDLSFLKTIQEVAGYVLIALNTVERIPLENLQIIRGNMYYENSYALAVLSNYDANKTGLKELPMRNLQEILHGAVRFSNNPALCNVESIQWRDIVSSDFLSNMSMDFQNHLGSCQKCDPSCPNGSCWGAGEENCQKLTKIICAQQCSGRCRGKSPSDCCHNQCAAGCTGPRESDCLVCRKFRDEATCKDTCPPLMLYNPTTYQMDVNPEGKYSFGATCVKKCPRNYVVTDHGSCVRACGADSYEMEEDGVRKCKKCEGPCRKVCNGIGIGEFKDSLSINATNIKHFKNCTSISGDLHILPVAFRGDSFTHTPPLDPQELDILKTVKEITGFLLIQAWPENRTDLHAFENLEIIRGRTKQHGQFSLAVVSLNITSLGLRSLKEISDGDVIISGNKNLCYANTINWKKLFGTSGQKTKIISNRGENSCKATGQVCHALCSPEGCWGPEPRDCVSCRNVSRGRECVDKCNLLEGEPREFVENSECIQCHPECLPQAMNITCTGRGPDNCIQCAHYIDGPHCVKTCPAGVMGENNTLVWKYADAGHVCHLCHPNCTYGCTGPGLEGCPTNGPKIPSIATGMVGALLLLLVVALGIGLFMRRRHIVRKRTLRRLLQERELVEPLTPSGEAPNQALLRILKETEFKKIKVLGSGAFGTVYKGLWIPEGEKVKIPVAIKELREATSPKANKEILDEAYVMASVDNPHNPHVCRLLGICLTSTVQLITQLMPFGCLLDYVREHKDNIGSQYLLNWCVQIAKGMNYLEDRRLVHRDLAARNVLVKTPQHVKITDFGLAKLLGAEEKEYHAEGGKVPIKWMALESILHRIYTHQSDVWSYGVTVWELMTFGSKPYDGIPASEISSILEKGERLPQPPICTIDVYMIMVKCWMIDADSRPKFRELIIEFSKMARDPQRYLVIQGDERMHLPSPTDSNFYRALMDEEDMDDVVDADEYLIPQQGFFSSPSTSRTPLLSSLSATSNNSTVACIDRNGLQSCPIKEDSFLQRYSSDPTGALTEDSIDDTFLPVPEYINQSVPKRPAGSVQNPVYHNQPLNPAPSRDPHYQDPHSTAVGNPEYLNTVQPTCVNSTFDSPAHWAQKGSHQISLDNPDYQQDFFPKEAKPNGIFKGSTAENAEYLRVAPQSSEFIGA

[5] = target: T5, EGFR SVD (Homo sapiens, UniProt P00533, DUP768-770); test: Activity for inhibiting EGFR (Table A), EGFR SVD; conditions: read-out: EGFR SVD, potency code (IC50)
T5 construct: expressed in transfected cells; host or cells: BaF3 (murine pro-B), retroviral pMXs-IRES-Blasticidin
T5 sequence (P00533 with tags, fused parts or gaps DUP768-770): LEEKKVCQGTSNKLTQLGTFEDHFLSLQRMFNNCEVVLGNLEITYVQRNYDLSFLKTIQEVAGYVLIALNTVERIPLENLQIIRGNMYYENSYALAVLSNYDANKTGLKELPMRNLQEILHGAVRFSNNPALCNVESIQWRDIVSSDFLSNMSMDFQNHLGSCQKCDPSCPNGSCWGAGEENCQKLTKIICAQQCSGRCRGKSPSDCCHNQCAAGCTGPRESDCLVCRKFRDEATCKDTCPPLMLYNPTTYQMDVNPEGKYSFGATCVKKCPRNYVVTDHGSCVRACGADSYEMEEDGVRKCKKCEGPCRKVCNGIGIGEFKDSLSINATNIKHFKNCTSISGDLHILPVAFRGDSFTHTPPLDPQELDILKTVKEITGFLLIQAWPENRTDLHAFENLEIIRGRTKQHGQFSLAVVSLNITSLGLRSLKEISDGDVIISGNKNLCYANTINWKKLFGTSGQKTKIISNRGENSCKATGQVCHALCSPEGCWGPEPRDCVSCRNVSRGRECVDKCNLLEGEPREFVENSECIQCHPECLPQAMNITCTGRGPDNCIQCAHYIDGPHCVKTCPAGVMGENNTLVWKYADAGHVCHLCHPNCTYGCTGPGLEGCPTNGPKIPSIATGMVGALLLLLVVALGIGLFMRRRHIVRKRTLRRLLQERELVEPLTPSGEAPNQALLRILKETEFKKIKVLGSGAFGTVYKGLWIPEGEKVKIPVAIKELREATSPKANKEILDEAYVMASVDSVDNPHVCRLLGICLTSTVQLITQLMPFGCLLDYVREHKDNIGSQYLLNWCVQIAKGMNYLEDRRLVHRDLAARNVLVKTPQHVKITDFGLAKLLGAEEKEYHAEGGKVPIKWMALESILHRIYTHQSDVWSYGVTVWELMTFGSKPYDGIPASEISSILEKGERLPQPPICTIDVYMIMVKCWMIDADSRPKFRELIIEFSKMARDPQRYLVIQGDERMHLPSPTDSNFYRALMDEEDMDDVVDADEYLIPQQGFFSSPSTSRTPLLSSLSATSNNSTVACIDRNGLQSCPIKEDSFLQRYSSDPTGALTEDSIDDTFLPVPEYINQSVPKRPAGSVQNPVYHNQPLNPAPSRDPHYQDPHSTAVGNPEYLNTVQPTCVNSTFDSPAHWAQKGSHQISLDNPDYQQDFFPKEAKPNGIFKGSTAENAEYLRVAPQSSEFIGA

[6] = target: T6, EGFR WT (Homo sapiens, UniProt P00533); test: BaF3 cell proliferation assay, EGFR WT (Table A); conditions: potency code, 3 days, CellTiterGlo, read-out: EGFR WT (Activity for Inhibiting EGFR)
Procedure, shortened: (§1)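 EC50s reflect growth of IL-3-independent BaF3 lines whose proliferation depends on the introduced human receptor variant. Lines were produced by retroviral infection and one week of 10 μg/ml Blasticidin selection.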

[7] = target: T7, EGFR V3 (Homo sapiens, UniProt P00533, DELINS30-297G); test: Activity for inhibiting EGFR (Table A), EGFR V3 (EGFR-Viii); conditions: read-out: EGFR V3, potency code (IC50)
T7 construct: expressed in transfected cells; host or cells: BaF3 (murine pro-B), retroviral pMXs-IRES-Blasticidin
T7 sequence (P00533 with tags, fused parts or gaps DELINS30-297G): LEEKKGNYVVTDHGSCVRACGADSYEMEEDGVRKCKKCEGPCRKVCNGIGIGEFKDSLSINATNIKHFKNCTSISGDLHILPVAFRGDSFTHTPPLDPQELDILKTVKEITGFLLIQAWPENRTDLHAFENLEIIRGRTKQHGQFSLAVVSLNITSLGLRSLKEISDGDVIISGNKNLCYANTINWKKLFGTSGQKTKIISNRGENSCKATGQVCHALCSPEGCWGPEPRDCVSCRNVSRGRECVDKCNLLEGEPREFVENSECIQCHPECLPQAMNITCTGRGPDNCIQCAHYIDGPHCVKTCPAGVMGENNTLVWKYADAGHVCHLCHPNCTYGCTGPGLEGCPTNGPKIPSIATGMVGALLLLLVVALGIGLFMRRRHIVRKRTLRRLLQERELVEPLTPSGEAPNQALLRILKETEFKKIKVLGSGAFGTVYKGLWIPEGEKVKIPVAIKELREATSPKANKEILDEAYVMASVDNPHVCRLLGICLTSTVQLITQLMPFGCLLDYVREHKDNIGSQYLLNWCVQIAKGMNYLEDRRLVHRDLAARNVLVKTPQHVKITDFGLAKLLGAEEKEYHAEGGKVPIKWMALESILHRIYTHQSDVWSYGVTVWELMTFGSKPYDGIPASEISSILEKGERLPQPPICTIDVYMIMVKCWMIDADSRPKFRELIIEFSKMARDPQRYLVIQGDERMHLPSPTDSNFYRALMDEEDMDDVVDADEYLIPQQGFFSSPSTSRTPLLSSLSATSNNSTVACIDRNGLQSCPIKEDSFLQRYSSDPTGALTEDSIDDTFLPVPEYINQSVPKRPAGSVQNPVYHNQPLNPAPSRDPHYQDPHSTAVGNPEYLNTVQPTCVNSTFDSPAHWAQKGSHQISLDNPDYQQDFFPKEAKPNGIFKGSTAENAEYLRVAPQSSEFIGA

[8] = target: T4, EGFR NPH; test: BaF3 cell proliferation assay, EGFR NPH (Table A); conditions: potency code, 3 days, CellTiterGlo, read-out: EGFR NPH (Activity for Inhibiting EGFR)
Experimental: (§2) Retroviral Production: EGFR mutants were subcloned into pMXs-IRES-Blasticidin (RTV-016, Cell Biolabs, San Diego, Calif.). Retroviral expression vector retrovirus was produced by transient transfection of HEK 293T cells with the retroviral EGFR mutant expression vector pMXs-IRES-Blasticidin (RTV-016, Cell Biolabs), pCMV-Gag-Pol vector and pCMV-VSV-G-Envelope vector. Briefly, HEK 293T/17 cells were plated in 100 mm collagen coated plate (354450, Corning Life Sciences, Tewksbury, Mass.) (4×10^5 per plate) and incubated overnight. The next day, retroviral plasmids (3 μg of EGFR mutant, 1.0 μg of pCMV-Gag-Pol and 0.5 μg pCMV-VSV-G) were mixed in 500 μl of Optimem (31985, Life Technologies). The mixture was incubated at room temperature for 5 min and then added to Optimem containing transfection reagent Lipofectamine (11668, Invitrogen) and incubated for 20 minutes. Mixture was then added dropwise to HEK 293T cells. The next day the medium was replaced with fresh culture medium and retrovirus was harvested @ 24 and 48 hrs.
(§3) Generation of EGFR mutant stable cell lines: BaF3 cells (1.5E5 cells) were infected with 1 ml of viral supernatant supplemented with 8 μg/ml polybrene by centrifuging for 30 min at 1000 rpm. Cells were placed in a 37° C. incubator overnight. Cells were then spun for 5 minutes to pellet the cells. Supernatant was removed and cells re-infected a fresh 1 ml of viral supernatant supplemented with 8 μg/ml polybrene by centrifuging for 30 min at 1000 rpm. Cells were placed in 37° C. incubator overnight. […] After 48 hours cells were selected for retroviral infection in 10 μg/ml Blasticidin for one week. Blasticidin resistant populations were washed twice in phosphate buffered saline before plating in media lacking IL-3 to select for IL-3 independent growth.
(§4) EC50 values were determined with the same application.

[9] = target: T1, HER2 YVMA; test: Activity for inhibiting HER2 (Table B), HER2 YVMA; conditions: read-out: HER2 YVMA, potency code (IC50)
Experimental: as §4

[10] = target: T2, HER2 S310F; test: Activity for inhibiting HER2 (Table B), HER2 S310F; conditions: read-out: HER2 S310F, potency code (IC50)
Experimental: as §4

[11] = target: T5, EGFR SVD; test: BaF3 cell proliferation assay, EGFR SVD (Table A); conditions: potency code, 3 days, CellTiterGlo, read-out: EGFR SVD (Activity for Inhibiting EGFR)
Experimental: as §2, §3, §4

[12] = target: T7, EGFR V3; test: BaF3 cell proliferation assay, EGFR V3 (Table A); conditions: potency code, 3 days, CellTiterGlo, read-out: EGFR V3 (Activity for Inhibiting EGFR)
Procedure, shortened: as §1

[13] = target: T6, EGFR WT; test: Activity for inhibiting EGFR (Table A), EGFR WT; conditions: read-out: EGFR WT, potency code (IC50)
[14] = target: T3, HER2 WT; test: Activity for inhibiting HER2 (Table B), HER2 WT
[15] = Table B, read-out: HER2 WT, potency code (IC50)
[16] = text lists of compounds, read-out: IC50 value for inhibiting wild-type HER2

Compound `C=CC(=O)Nc1cc2c(Nc3ccc(OCc4ccccn4)c(Cl)c3)ncnc2cc1N1CCN(C)CC1` [compound 42] has an IC50 [1] of 500 to 1000 nM, an IC50 [2] of 50 to 100 nM and an IC50 [3] of 30 to 50 nM. The IC50 [4] was > 1000 nM, the IC50 [5] was 500 to 1000 nM and the IC50 [6] was 500 to 1000 nM. For the same compound, the IC50 [7] was 50 to 100 nM, the IC50 [8] was > 1000 nM and the IC50 [9] was 500 to 1000 nM. For the same compound, the IC50 [10] was 50 to 100 nM, the IC50 [11] was 500 to 1000 nM and the IC50 [12] was 50 to 100 nM. For the same compound, the IC50 [13] was 500 to 1000 nM, the IC50 [14, 15] was 30 to 50 nM and the IC50 [14, 16] was ≤ 50 nM.
`C=CC(=O)Nc1cc2c(Nc3ccc(OCc4ccccn4)c(Cl)c3)ncnc2cc1OC1CC(N(C)C)C1` (stereo not drawn) [compound 62] was tested, and the IC50 [1] was 30 to 50 nM, the IC50 [2] was 5 to 10 nM and the IC50 [3] was < 5 nM. It also gave an IC50 [4] of 30 to 50 nM, an IC50 [5] of 20 to 30 nM and an IC50 [6] of 300 to 500 nM. For the same compound, the IC50 [7] was 10 to 20 nM, the IC50 [8] was 30 to 50 nM and the IC50 [9] was 30 to 50 nM. It also gave an IC50 [10] of 5 to 10 nM, an IC50 [11] of 20 to 30 nM and an IC50 [12] of 10 to 20 nM. The IC50 [13] was 300 to 500 nM, the IC50 [14, 15] was < 5 nM and the IC50 [14, 16] was ≤ 5 nM.
`C=CC(=O)Nc1cc2c(Nc3cc(Cl)c(OCc4ccccn4)cc3F)ncnc2cc1OCCN1CCOCC1` [compound 57] was tested, and the IC50 [1] was 50 to 100 nM, the IC50 [2] was 10 to 20 nM and the IC50 [3] was 5 to 10 nM. It also gave an IC50 [4] of 50 to 100 nM, an IC50 [5] of 30 to 50 nM and an IC50 [6] of 500 to 1000 nM. For the same compound, the IC50 [7] was 10 to 20 nM, the IC50 [8] was 50 to 100 nM and the IC50 [9] was 50 to 100 nM. The IC50 [10] was 10 to 20 nM, the IC50 [11] was 30 to 50 nM and the IC50 [12] was 10 to 20 nM. The IC50 [13] was 500 to 1000 nM, the IC50 [14, 15] was 5 to 10 nM and the IC50 [14, 16] was ≤ 10 nM.
For `C=CC(=O)Nc1cc2c(Nc3ccc(OCc4ccccn4)c(Cl)c3)ncnc2cc1OCCN(C)C1CCOC1` (stereo not drawn) [compound 41], the IC50 [1] was 50 to 100 nM, the IC50 [2] was 20 to 30 nM and the IC50 [3] was 5 to 10 nM. It also gave an IC50 [4] of 50 to 100 nM, an IC50 [5] of 30 to 50 nM and an IC50 [6] of 500 to 1000 nM. For the same compound, the IC50 [7] was 30 to 50 nM, the IC50 [8] was 50 to 100 nM and the IC50 [9] was 50 to 100 nM. For the same compound, the IC50 [10] was 20 to 30 nM, the IC50 [11] was 30 to 50 nM and the IC50 [12] was 30 to 50 nM. The IC50 [13] was 500 to 1000 nM, the IC50 [14, 15] was 5 to 10 nM and the IC50 [14, 16] was ≤ 10 nM.
Work on `C=CC(=O)Nc1cc2c(Nc3ccc(OCc4ccccn4)c(Cl)c3)ncnc2cc1OCCN1CCCC1` [compound 28] yielded an IC50 [1] of 30 to 50 nM, an IC50 [2] of 10 to 20 nM and an IC50 [3] of 5 to 10 nM. It also gave an IC50 [4] of 50 to 100 nM, an IC50 [5] of 30 to 50 nM and an IC50 [6] of 200 to 300 nM. The IC50 [7] was 10 to 20 nM, the IC50 [8] was 50 to 100 nM and the IC50 [9] was 30 to 50 nM. The IC50 [10] was 10 to 20 nM, the IC50 [11] was 30 to 50 nM and the IC50 [12] was 10 to 20 nM. The IC50 [13] was 200 to 300 nM, the IC50 [14, 15] was 5 to 10 nM and the IC50 [14, 16] was ≤ 10 nM.
For `C=CC(=O)Nc1cc2c(Nc3ccc(OCc4ccccn4)c(Cl)c3)ncnc2cc1OCCN1CC(OC)C1` [compound 35], the IC50 [1] was 30 to 50 nM, the IC50 [2] was 10 to 20 nM and the IC50 [3] was < 5 nM. For the same compound, the IC50 [4] was 50 to 100 nM, the IC50 [5] was 20 to 30 nM and the IC50 [6] was 300 to 500 nM. It also gave an IC50 [7] of 20 to 30 nM, an IC50 [8] of 50 to 100 nM and an IC50 [9] of 30 to 50 nM. For the same compound, the IC50 [10] was 10 to 20 nM, the IC50 [11] was 20 to 30 nM and the IC50 [12] was 20 to 30 nM. For the same compound, the IC50 [13] was 300 to 500 nM, the IC50 [14, 15] was < 5 nM and the IC50 [14, 16] was ≤ 5 nM.
For `C=CC(=O)Nc1cc2c(Nc3ccc(OCc4ccccn4)c(Cl)c3)ncnc2cc1O[C@@H]1CCN(C)C1` [compound 17], the IC50 [1] was 30 to 50 nM, the IC50 [2] was 5 to 10 nM and the IC50 [3] was < 5 nM. It also gave an IC50 [4] of 20 to 30 nM, an IC50 [5] of 10 to 20 nM and an IC50 [6] of 200 to 300 nM. It also gave an IC50 [7] of 10 to 20 nM, an IC50 [8] of 20 to 30 nM and an IC50 [9] of 30 to 50 nM. The IC50 [10] was 5 to 10 nM, the IC50 [11] was 10 to 20 nM and the IC50 [12] was 10 to 20 nM. For the same compound, the IC50 [13] was 200 to 300 nM, the IC50 [14, 15] was < 5 nM and the IC50 [14, 16] was ≤ 5 nM.
